Numbers after ± are expanded uncertainties.
Assay: mn = molality of the nth substance listed, in mol/kg
Settings: 100 kPa, Liquid; for viscosity: Capillary tube (Ostwald / Ubbelohde) method; for mass density: Vibrating tube method

O [water] + CC(C)[C@H](N)C(=O)O
m2 = 0
Settings	mass density [kg/m3]	viscosity [mPa·s]
293.15 K	–	1.002 ± 0.041
303.15 K	–	0.798 ± 0.032
313.15 K	–	0.654 ± 0.026
323.15 K	988.02 ± 1.4	0.547 ± 0.022

N=C(N)NCCC[C@H](N)C(=O)O [L-arginine] + O
Settings	mass density, 293.15 K [kg/m3]	mass density, 303.15 K [kg/m3]	mass density, 313.15 K [kg/m3]	mass density, 323.15 K [kg/m3]	viscosity, 293.15 K [mPa·s]	viscosity, 303.15 K [mPa·s]	viscosity, 313.15 K [mPa·s]	viscosity, 323.15 K [mPa·s]
m1 = 0.1	1003.16 ± 1.4	1000.56 ± 1.4	997.08 ± 1.4	992.8 ± 1.4	1.054 ± 0.043	0.837 ± 0.034	0.684 ± 0.028	0.572 ± 0.023
m1 = 0.2	1007.98 ± 1.4	1005.3 ± 1.4	1001.76 ± 1.4	997.43 ± 1.4	1.109 ± 0.045	0.879 ± 0.036	0.716 ± 0.029	0.598 ± 0.024
m1 = 0.3	1012.67 ± 1.4	1009.89 ± 1.4	1006.3 ± 1.4	1001.92 ± 1.4	1.167 ± 0.047	0.922 ± 0.037	0.751 ± 0.03	0.625 ± 0.025
m1 = 0.4	1017.19 ± 1.4	1014.33 ± 1.4	1010.71 ± 1.4	1006.3 ± 1.4	1.229 ± 0.05	0.969 ± 0.039	0.786 ± 0.032	0.653 ± 0.026
m1 = 0.5	1021.57 ± 1.4	1018.66 ± 1.4	1014.97 ± 1.4	1010.54 ± 1.4	1.296 ± 0.052	1.019 ± 0.041	0.825 ± 0.033	0.682 ± 0.028
m1 = 0.6	1025.85 ± 1.4	1022.85 ± 1.4	1019.13 ± 1.4	1014.68 ± 1.4	1.366 ± 0.055	1.069 ± 0.043	0.863 ± 0.035	0.713 ± 0.029
m1 = 0.7	1030 ± 1.4	1026.94 ± 1.4	1023.18 ± 1.4	1018.67 ± 1.4	1.435 ± 0.058	1.121 ± 0.045	0.903 ± 0.037	0.743 ± 0.03

O [water] + NCC(=O)O
m2 = 0
Settings	mass density [kg/m3]	viscosity [mPa·s]
293.15 K	–	1.002 ± 0.041
303.15 K	–	0.798 ± 0.032
313.15 K	–	0.654 ± 0.026
323.15 K	988.02 ± 1.4	0.547 ± 0.022

O [water] + N=C(N)NCCC[C@H](N)C(=O)O
m2 = 0
Settings	mass density [kg/m3]	viscosity [mPa·s]
293.15 K	–	1.002 ± 0.041
303.15 K	–	0.798 ± 0.032
313.15 K	–	0.654 ± 0.026
323.15 K	988.02 ± 1.4	0.547 ± 0.022

O [water] + OC[C@@H](O)[C@@H](O[C@H]1O[C@H](CO)[C@@H](O)[C@H](O)[C@H]1O)[C@H](O)[C@@H](O)CO
m2 = 0
Settings	mass density [kg/m3]	viscosity [mPa·s]
293.15 K	–	1.002 ± 0.041
303.15 K	–	0.798 ± 0.032
313.15 K	–	0.654 ± 0.027
323.15 K	988.02 ± 1.4	0.547 ± 0.022

OC[C@@H](O)[C@@H](O[C@H]1O[C@H](CO)[C@@H](O)[C@H](O)[C@H]1O)[C@H](O)[C@@H](O)CO [4-O-α-D-glucopyranosyl-D-glucitol] + O
Settings	mass density, m1 = 0.2 [kg/m3]	mass density, m1 = 0.4 [kg/m3]	mass density, m1 = 0.6 [kg/m3]	mass density, m1 = 0.8 [kg/m3]	mass density, m1 = 1 [kg/m3]	viscosity, m1 = 0.2 [mPa·s]	viscosity, m1 = 0.4 [mPa·s]	viscosity, m1 = 0.6 [mPa·s]	viscosity, m1 = 0.8 [mPa·s]	viscosity, m1 = 1 [mPa·s]
293.15 K	1022.97 ± 1.4	1045.59 ± 1.4	1066.2 ± 1.4	1085.31 ± 1.4	1102.86 ± 1.4	1.202 ± 0.049	1.457 ± 0.059	1.761 ± 0.071	2.142 ± 0.087	2.61 ± 0.11
303.15 K	1020.13 ± 1.4	1042.41 ± 1.4	1062.88 ± 1.4	1081.69 ± 1.4	1099.07 ± 1.4	0.95 ± 0.038	1.134 ± 0.046	1.353 ± 0.055	1.626 ± 0.066	1.954 ± 0.079
313.15 K	1016.42 ± 1.4	1038.47 ± 1.4	1058.71 ± 1.4	1077.36 ± 1.4	1094.66 ± 1.4	0.77 ± 0.031	0.909 ± 0.037	1.073 ± 0.043	1.277 ± 0.052	1.511 ± 0.061
323.15 K	1012.07 ± 1.4	1033.97 ± 1.4	1054.01 ± 1.4	1072.55 ± 1.4	1089.71 ± 1.4	0.641 ± 0.026	0.747 ± 0.03	0.874 ± 0.035	1.027 ± 0.042	1.204 ± 0.049

NCC(=O)O [2-aminoacetic acid] + O
Settings	mass density, 293.15 K [kg/m3]	mass density, 303.15 K [kg/m3]	mass density, 313.15 K [kg/m3]	mass density, 323.15 K [kg/m3]	viscosity, 293.15 K [mPa·s]	viscosity, 303.15 K [mPa·s]	viscosity, 313.15 K [mPa·s]	viscosity, 323.15 K [mPa·s]
m1 = 0.1	1001.39 ± 1.4	998.81 ± 1.4	–	991.09 ± 1.4	1.014 ± 0.041	0.809 ± 0.033	0.663 ± 0.027	0.556 ± 0.023
m1 = 0.2	1004.56 ± 1.4	1001.91 ± 1.4	–	994.12 ± 1.4	1.027 ± 0.042	0.82 ± 0.033	0.673 ± 0.027	0.565 ± 0.023
m1 = 0.3	1007.67 ± 1.4	1004.97 ± 1.4	1001.42 ± 1.4	997.11 ± 1.4	1.041 ± 0.042	0.832 ± 0.034	0.683 ± 0.028	0.574 ± 0.023
m1 = 0.4	1010.73 ± 1.4	1007.98 ± 1.4	1004.4 ± 1.4	1000.05 ± 1.4	1.055 ± 0.043	0.844 ± 0.034	0.693 ± 0.028	0.582 ± 0.024
m1 = 0.5	1013.74 ± 1.4	1010.94 ± 1.4	1007.32 ± 1.4	1002.96 ± 1.4	1.07 ± 0.043	0.856 ± 0.035	0.704 ± 0.029	0.591 ± 0.024
m1 = 0.6	1016.72 ± 1.4	1013.87 ± 1.4	1010.23 ± 1.4	1005.85 ± 1.4	1.085 ± 0.044	0.868 ± 0.035	0.714 ± 0.029	0.6 ± 0.024
m1 = 0.7	1019.66 ± 1.4	1016.75 ± 1.4	1013.06 ± 1.4	1008.69 ± 1.4	1.101 ± 0.045	0.881 ± 0.036	0.724 ± 0.029	0.61 ± 0.025

Reference: the NIST ThermoML archive (doi:10.1016/j.jct.2017.02.024)
